From patent publication US7632972B2, “Compounds and methods for treatment of cancer and modulation of programmed cell death for melanoma and other cancer cells” (The Board of Trustees of the University of Illionis, priority 2003, dated 2009)

What was measured:
Type in all cases: cell-based, human
HS 578T = experiment: NCI 60 cell line screen (SRB), Breast Cancer
Description: (§1) The operation of this screen utilizes 60 different human tumor cell lines, representing leukemia, melanoma and cancers of the lung, colon, brain, ovary, breast, prostate, and kidney. The aim is to prioritize for further evaluation, synthetic compounds or natural product samples showing selective growth inhibition or cell killing of particular tumor cell lines. This screen is unique in that the complexity of a 60 cell line dose response produced by a given compound results in a biological response pattern which can be utilized in pattern recognition algorithms. Using these algorithms, it is possible to assign a putative mechanism of action to a test compound, or to determine that the response pattern is unique and not similar to that of any of the standard prototype compounds included in the NCl database (see DTP Overview tab). In addition, following characterization of various cellular molecular targets in the 60 cell lines, it may be possible to select compounds most likely to interact with a specific molecular target.
(§2) The human tumor cell lines of the cancer screening panel are grown in RPMI 1640 medium containing 5% fetal bovine serum and 2 mM L-glutamine. For a typical screening experiment, cells are inoculated into 96 well microtiter plates in 100 μL at plating densities ranging from 5,000 to 40,000 cells/well depending on the doubling time of individual cell lines. After cell inoculation, the microtiter plates are incubated at 37° C., 5% CO2, 95% air and 100% relative humidity for 24 h prior to addition of experimental drugs.
(§3) After 24 h, two plates of each cell line are fixed in situ with TCA, to represent a measurement of the cell population for each cell line at the time of drug addition (Tz). Experimental drugs are solubilized in dimethyl sulfoxide at 400-fold the desired final maximum test concentration and stored frozen prior to use. At the time of drug addition, an aliquot of frozen concentrate is thawed and diluted to twice the desired final maximum test concentration with complete medium containing 50 μg/ml gentamicin. Additional four, 10-fold or ½ log serial dilutions are made to provide a total of five drug concentrations plus control. Aliquots of 100 μl of these different drug dilutions are added to the appropriate microtiter wells already containing 100 μl of medium, resulting in the required final drug concentrations.
(§4) Following drug addition, the plates are incubated for an additional 48 h at 37° C., 5% CO2, 95% air, and 100% relative humidity. For adherent cells, the assay is terminated by the addition of cold TCA. Cells are fixed in situ by the gentle addition of 50 μl of cold 50% (w/v) TCA (final concentration, 10% TCA) and incubated for 60 minutes at 4° C. The supernatant is discarded, and the plates are washed five times with tap water and air dried. Sulforhodamine B (SRB) solution (100 μl) at 0.4% (w/v) in 1% acetic acid is added to each well, and plates are incubated for 10 minutes at room temperature. After staining, unbound dye is removed by washing five times with 1% acetic acid and the plates are air dried. Bound stain is subsequently solubilized with 10 mM trizma base, and the absorbance is read on an automated plate reader at a wavelength of 515 nm. For suspension cells, the methodology is the same except that the assay is terminated by fixing settled cells at the bottom of the wells by gently adding 50 μl of 80% TCA (final concentration, 16% TCA). Using the seven absorbance measurements [time zero, (Tz), control growth, (C), and test growth in the presence of drug at the five concentration levels (Ti)], the percentage growth is calculated at each of the drug concentrations levels. Percentage growth inhibition is calculated as: [(Ti−Tz)/(C−Tz)]×100 for concentrations for which Ti>/=Tz [(Ti−Tz)/Tz]×100 for concentrations for which Ti<Tz.
(§5) Three dose response parameters are calculated for each experimental agent. […]

T-47D = experiment: NCI 60 cell line screen (SRB), Breast Cancer
Description: as §1, §2, §3, §4, §5

MDA-MB-435 = experiment: NCI 60 cell line screen (SRB), Breast Cancer
Description: as §1, §2, §3, §4, §5

PC-3 = experiment: NCI 60 cell line screen (SRB), Prostate Cancer
Description: as §1, §2, §3, §4, §5

DU-145 = experiment: NCI 60 cell line screen (SRB), Prostate Cancer
Description: as §1, §2, §3, §4, §5

COLO 205 = experiment: NCI 60 cell line screen (SRB), Colon Cancer
Description: as §1, §2, §3, §4, §5

SW-620 = experiment: NCI 60 cell line screen (SRB), Colon Cancer
Description: as §1, §2, §3, §4, §5

KM12 = experiment: NCI 60 cell line screen (SRB), Colon Cancer
Description: as §1, §2, §3, §4, §5

HCT-116 = experiment: NCI 60 cell line screen (SRB), Colon Cancer
Description: as §1, §2, §3, §4, §5

[1] = read-out: LC50 (the source's name)

SMILES: COc1cccc(CCNC(=O)CC(c2ccccc2)(c2ccccc2)c2ccccc2)c1 [Compound Z3]
- GI50 (HS 578T; MS 578T): > 100 µM
- TGI (HS 578T; MS 578T): >1.00E−04
- Percent Growth (HS 578T; MS 578T, Log10 Concentration −4.0): 55%
- Percent Growth (HS 578T; MS 578T, Log10 Concentration −5.0): 85%
- Percent Growth (HS 578T; MS 578T, Log10 Concentration −6.0): 101%
- Percent Growth (HS 578T; MS 578T, Log10 Concentration −7.0): 126%
- Percent Growth (HS 578T; MS 578T, Log10 Concentration −8.0): 101%
- CC50 (HS 578T; [1]): > 100 µM
- GI50 (T-47D): > 100 µM
- TGI (T-47D): >1.00E−04
- Percent Growth (T-47D; Log10 Concentration −4.0): 84%
- Percent Growth (T-47D; Log10 Concentration −5.0): 55%
- Percent Growth (T-47D; Log10 Concentration −6.0): 78%
- Percent Growth (T-47D; Log10 Concentration −7.0): 108%
- Percent Growth (T-47D; Log10 Concentration −8.0): 78%
- CC50 (T-47D; [1]): > 100 µM
- GI50 (MDA-MB-435; MDA-MB-435): 6.5 µM
- TGI (MDA-MB-435; MDA-MB-435): >1.00E−04
- Percent Growth (MDA-MB-435; MDA-MB-435, Log10 Concentration −4.0): 28%
- Percent Growth (MDA-MB-435; MDA-MB-435, Log10 Concentration −5.0): 40%
- Percent Growth (MDA-MB-435; MDA-MB-435, Log10 Concentration −6.0): 91%
- Percent Growth (MDA-MB-435; MDA-MB-435, Log10 Concentration −7.0): 109%
- Percent Growth (MDA-MB-435; MDA-MB-435, Log10 Concentration −8.0): 92%
- CC50 (MDA-MB-435; MDA-MB-435, read-out: LC50 (the source's name)): > 100 µM
- GI50 (PC-3; PC-3): 6.12 µM
- TGI (PC-3; PC-3): >1.00E−04
- Percent Growth (PC-3; PC-3, Log10 Concentration −4.0): 12%
- Percent Growth (PC-3; PC-3, Log10 Concentration −5.0): 39%
- Percent Growth (PC-3; PC-3, Log10 Concentration −6.0): 90%
- Percent Growth (PC-3; PC-3, Log10 Concentration −7.0): 96%
- Percent Growth (PC-3; PC-3, Log10 Concentration −8.0): 100%
- CC50 (PC-3; PC-3, read-out: LC50 (the source's name)): > 100 µM
- GI50 (DU-145; DU-145): 26.8 µM
- TGI (DU-145; DU-145): >1.00E−04
- Percent Growth (DU-145; DU-145, Log10 Concentration −4.0): 31%
- Percent Growth (DU-145; DU-145, Log10 Concentration −5.0): 64%
- Percent Growth (DU-145; DU-145, Log10 Concentration −6.0): 88%
- Percent Growth (DU-145; DU-145, Log10 Concentration −7.0): 93%
- Percent Growth (DU-145; DU-145, Log10 Concentration −8.0): 88%
- CC50 (DU-145; DU-145, read-out: LC50 (the source's name)): > 100 µM
- GI50 (COLO 205; COLO 205): 12.8 µM
- TGI (COLO 205; COLO 205): >1.00E−04
- Percent Growth (COLO 205; COLO 205, Log10 Concentration −4.0): 27%
- Percent Growth (COLO 205; COLO 205, Log10 Concentration −5.0): 53%
- Percent Growth (COLO 205; COLO 205, Log10 Concentration −6.0): 106%
- Percent Growth (COLO 205; COLO 205, Log10 Concentration −7.0): 117%
- Percent Growth (COLO 205; COLO 205, Log10 Concentration −8.0): 99%
- CC50 (COLO 205; COLO 205, read-out: LC50 (the source's name)): > 100 µM
- GI50 (SW-620; SW-620): 85.2 µM
- TGI (SW-620; SW-620): >1.00E−04
- Percent Growth (SW-620; SW-620, Log10 Concentration −4.0): 49%
- Percent Growth (SW-620; SW-620, Log10 Concentration −5.0): 64%
- Percent Growth (SW-620; SW-620, Log10 Concentration −6.0): 97%
- Percent Growth (SW-620; SW-620, Log10 Concentration −7.0): 105%
- Percent Growth (SW-620; SW-620, Log10 Concentration −8.0): 95%
- CC50 (SW-620; SW-620, read-out: LC50 (the source's name)): > 100 µM
- GI50 (KM12; KM12): 4.75 µM
- TGI (KM12; KM12): >1.00E−04
- Percent Growth (KM12; KM12, Log10 Concentration −4.0): 14%
- Percent Growth (KM12; KM12, Log10 Concentration −5.0): 25%
- Percent Growth (KM12; KM12, Log10 Concentration −6.0): 101%
- Percent Growth (KM12; KM12, Log10 Concentration −7.0): 107%
- Percent Growth (KM12; KM12, Log10 Concentration −8.0): 111%
- CC50 (KM12; KM12, read-out: LC50 (the source's name)): > 100 µM
- GI50 (HCT-116; HCT-116): 2.58 µM
- TGI (HCT-116; HCT-116): 2.67E−05
- Percent Growth (HCT-116; HCT-116, Log10 Concentration −4.0): −22%
- Percent Growth (HCT-116; HCT-116, Log10 Concentration −5.0): 16%
- Percent Growth (HCT-116; HCT-116, Log10 Concentration −6.0): 74%
- Percent Growth (HCT-116; HCT-116, Log10 Concentration −7.0): 91%
- Percent Growth (HCT-116; HCT-116, Log10 Concentration −8.0): 97%
- CC50 (HCT-116; HCT-116, read-out: LC50 (the source's name)): > 100 µM
